Results as given in ChEMBL document CHEMBL1139332, “Selective activity against Mycobacteriumtuberculosis of new quinoxaline 1,4-di-N-oxides” (Bioorg Med Chem, 2009).
Converted amounts (≈) assume the structure as drawn.

How the values were obtained:
[1] = tested on: Mycobacterium tuberculosis; experiment: Antimicrobial activity against Mycobacterium tuberculosis H37Rv by microplate alamar blue assay; assay type: functional
[2] = tested on: Mycobacterium tuberculosis; experiment: Antimicrobial activity against Mycobacterium tuberculosis H37Rv at 6.25 ug/ml by microplate alamar blue assay; assay type: functional
Vero = experiment: Cytotoxicity against african green monkey Vero cells after 72 hrs by MTT assay; assay type: cell-based, Chlorocebus sabaeus; settings: Chlorocebus sabaeus, Vero, 72 h; read-out: IC50
[3] = Selectivity index, ratio of IC50 for african green monkey Vero cells to MIC for Mycobacterium tuberculosis H37Rv; assay type: functional

SMILES	MIC [1]	inhibition at 6.25 µg/mL [2]	IC50 (Vero)	Ratio [3]
Cc1cc2c(cc1C)[n+]([O-])c(-c1ccc(Cl)cc1)c(C#N)[n+]2[O-]	0.78 µg/mL (≈ 2.39 µM)	90%	> 10 µg/mL	>12.8
Cc1ccc2c(c1)[n+]([O-])c(C#N)c(-c1ccc(F)cc1)[n+]2[O-]	< 0.2 µg/mL	90%	> 100 µg/mL	>500
CCOC(=O)c1c(-c2ccccc2)[n+]([O-])c2ccc(OC)cc2[n+]1[O-]	6.25 µg/mL (≈ 18.4 µM)	90%	17.8 µg/mL (≈ 52.2 µM)	2.84
CCOC(=O)c1c(-c2ccc(Cl)cc2)[n+]([O-])c2ccccc2[n+]1[O-]	0.39 µg/mL (≈ 1.13 µM)	90%	4.8 µg/mL (≈ 13.9 µM)	12.31
Cc1ccc(-c2c(C#N)[n+]([O-])c3cc(Cl)ccc3[n+]2[O-])cc1	6.25 µg/mL (≈ 20 µM)	90%	0.63 µg/mL (≈ 2.02 µM)	0.1
CCOC(=O)c1c(-c2ccccc2)[n+]([O-])c2cc(F)c(F)cc2[n+]1[O-]	1.56 µg/mL (≈ 4.5 µM)	90%	0.38 µg/mL (≈ 1.1 µM)	0.24
Cc1ccc(-c2c(C#N)[n+]([O-])c3ccccc3[n+]2[O-])cc1	0.39 µg/mL (≈ 1.41 µM)	90%	0.68 µg/mL (≈ 2.45 µM)	1.7
N#Cc1c(-c2ccc(F)cc2)[n+]([O-])c2ccc(F)cc2[n+]1[O-]	< 0.2 µg/mL	90%	24.9 µg/mL (≈ 83.3 µM)	>124.67
CCOC(=O)c1c(-c2ccc(OC)cc2)[n+]([O-])c2ccccc2[n+]1[O-]	1.56 µg/mL (≈ 4.58 µM)	90%	7.65 µg/mL (≈ 22.5 µM)	4.9
CCOC(=O)c1c(-c2ccc(C)cc2)[n+]([O-])c2ccccc2[n+]1[O-]	0.78 µg/mL (≈ 2.4 µM)	90%	11.3 µg/mL (≈ 34.8 µM)	14.47
COc1ccc(-c2c(C#N)[n+]([O-])c3cc(C(F)(F)F)ccc3[n+]2[O-])cc1	< 0.2 µg/mL	90%	0.9 µg/mL (≈ 2.49 µM)	>4.53
N#Cc1c(-c2ccccc2)[n+]([O-])c2ccccc2[n+]1[O-]	0.2 µg/mL (≈ 0.76 µM)	90%	1.9 µg/mL (≈ 7.22 µM)	9.5
CCOC(=O)c1c(-c2ccccc2)[n+]([O-])c2ccc(C)cc2[n+]1[O-]	1.56 µg/mL (≈ 4.81 µM)	90%	18.6 µg/mL (≈ 57.4 µM)	11.93
COC(=O)c1ccc(-c2c(C#N)[n+]([O-])c3cc(Cl)ccc3[n+]2[O-])cc1	3.13 µg/mL (≈ 8.8 µM)	90%	20.9 µg/mL (≈ 58.7 µM)	6.7
COc1ccc2c(c1)[n+]([O-])c(C#N)c(-c1ccc(Cl)cc1)[n+]2[O-]	0.78 µg/mL (≈ 2.38 µM)	90%	1 µg/mL (≈ 3.05 µM)	1.3
N#Cc1c(-c2ccccc2)[n+]([O-])c2ccc(F)cc2[n+]1[O-]	< 0.2 µg/mL	90%	17.6 µg/mL (≈ 62.6 µM)	>88.03
CCOC(=O)c1c(-c2ccc([N+](=O)[O-])cc2)[n+]([O-])c2ccccc2[n+]1[O-]	0.78 µg/mL (≈ 2.2 µM)	90%	2.26 µg/mL (≈ 6.36 µM)	2.9
N#Cc1c(-c2ccc(F)cc2)[n+]([O-])c2ccccc2[n+]1[O-]	< 0.2 µg/mL	90%	3.83 µg/mL (≈ 13.6 µM)	>19.16
